Where “and” joins values, the source holds several entries; their conditions need not be identical. Equal values may be shown once.
How the values were obtained:
[1] = Stability of solutions in MeCN monitored by 1H NMR or UV-vis spectroscopy; type: physicochemical
Experimental: The stabilities of 10a, 10a^(•) and Na-10a^(−) were monitored as solutions in MeCN by ^1H NMR spectroscopy or UV-vis spectroscopy. Separate solutions of 10a, 10a^(•) and Na-10a^(−) in MeCN were prepared at 480 mM, 540 mM and 39 mM concentrations, respectively. The parent compound 10a was monitored by ^1H NMR spectroscopy against an internal standard of 1,3,5-trimethoxybenzene. […] Solutions of the reduced species 10a^(•) and Na-10a^(−) were stored at room temperature under nitrogen, and the concentrations of the solutions were measured periodically over 36 h or 48 h by UV-vis spectroscopy (FIG. 13).

[2] = Cyclic voltammetry (CV) of anolyte candidates in a three-electrode cell; type: physicochemical; details: for baseline (initial) current at starting potential of +1 V: MeCN/LiBF4, 0.01 M, 100 mV/s; for current ratio i9a(−)/iLi-9a: 0.1 M LiBF4 in MeCN
[3] = Solubility in MeCN by UV-vis spectroscopy under inert atmosphere
Experimental: (§1) The solubilities of 10a, 10a^(•), and Na-10a^(−) were determined by UV-vis spectroscopy in MeCN under an inert atmosphere.
(§2) A saturated solution of 10a^(•) was prepared and analyzed at 322 nm by UV-vis spectroscopy.

[4] = Simulation of CVs fit to experimental data: Li+ association/dissociation with charged anolyte; type: physicochemical
Experimental: To obtain values for the rates for association as well as the equilibrium constant for formation of Li-9a, the redox system proposed in Scheme 9 was computationally modeled. Diffusion constants for the anolyte were calculated to be on the order of 2×10^−9 m^2/s by analysis of changes in the potential at the first reductive couple with variable scan rates. This value was applied for all species in the simulation based on their similar molecular weights. A resistance of 400 ohms and no capacitance was simulated for all couples. With these parameters, the simulations were fit to experimental data acquired at variable scan rates (FIG. 9) in order to estimate the rate constants for association and dissociation of Li^+. The experimentally measured CVs features were accurately reproduced when the rate constant for Li^+ coordination was 10 M^−1s^−1 and the rate constant for dissociation was 0.5 s^−1. These rate constants indicate that the equilibrium constant for binding of Li^+ to 9a^(−) is on the order of 20 M^−1.
This system was further investigated at higher concentrations of Li^+. CVs were acquired at concentrations of LiBF4 ranging from 57 mM to 260 mM with a constant 0.1 M concentration of 9a (FIG. 9b; solid lines). As expected, higher concentrations of LiBF4 led to greater currents from the oxidation of Li-9a. The calculated rate constants (ki=10 M^−1s^−1, k^−1=0.5 s^−1) were employed to model the effects of LiBF4 concentration on the current peak-heights. The results are illustrated in FIG. 9b (dashed lines) and are in full agreement with the experimentally measured CVs.

physchem = details: organic solvent or mixture, thermodynamic from solid
Experimental: as §1, §2

[5] = MeCN/LiBF4, cathodic sweep starting at +1 V
[6] = simulation fit to experimental CVs at variable scan rates, MeCN/LiBF4

## CC([O-])=C1C=CN(C)C=C1.[Na+] [Na-10a^(−)]
[1]; MeCN, room temperature under nitrogen, UV-vis over 36 h or 48 h, 540 mM (10a•), 39 mM (Na-10a−)
  concentration of solution on storage: did not change
[2]
  baseline (initial) current at starting potential of +1 V: 40-50 μA and 45 μA
[3]
  solubility (saturation concentration): 62 ± 7 mM

## COC(=O)c1cc[n+](C)cc1.F[B-](F)(F)F [Compound 9a]
[2]; 50 mV/s
  current ratio i9a(−)/iLi-9a: 32
[2]; 200 mV/s
  current ratio i9a(−)/iLi-9a: 11
[2]; 500 mV/s
  current ratio i9a(−)/iLi-9a: 6
[2]; MeCN, 0.1 M LiBF4
  potential at which charged anolyte is oxidized (discharged): −1.7 V
[2]; MeCN, 0.1 M LiBF4, 200 mV/s
  current at +0.4 V (lithium adduct formation): almost no current was detected
[2]; [5]
  first single-electron reduction (step i): −1.1 V
  second single-electron reduction (step ii): −1.9 V
[4]; from changes in potential at the first reductive couple with variable scan rates
  diffusion constant: ~2×10^−9 m^2/s
[4]; from the fitted rate constants
  equilibrium constant for binding of Li^+: ~20 M⁻¹
[4]; [6]
  rate constant for Li^+ coordination: 10 M⁻¹ s⁻¹
  rate constant for dissociation: 0.5 s⁻¹

## CC(=O)c1cc[n+](C)cc1 [Compound 10a]
[1]; 480 mM in MeCN, 1H NMR vs internal standard, four days, in the presence of air and moisture
  decomposition in solution: No measurable decomposition
[2]; MeCN/LiBF4
  difference of first reduction potential, 9a versus 10a: 0.1 V
  peak height ratios of two reductive couples: close to 1
  second reduction more positive than that of 9a: 0.4 V
[2]
  baseline (initial) current at starting potential of +1 V: no analogous current is observed
physchem
  solubility: 1600 ± 100 mM

From patent US11056705B2, “Organic anolyte materials for flow batteries” (THE REGENTS OF THE UNIVERSITY OF MICHIGAN, priority 2015, dated 2021)
